The supplement of paper PMC10307832

Experiments:
Test in all cases: relative viability (nuclei count vs DMSO), 5 days (fraction); higher = more cells survive
Bicalutamide + OSI-027 = compound: CC(O)(CS(=O)(=O)c1ccc(F)cc1)C(=O)Nc1ccc(C#N)c(C(F)(F)F)c1 [Bicalutamide] + COc1cccc2cc(-c3nc([C@H]4CC[C@H](C(=O)O)CC4)n4ncnc(N)c34)[nH]c12 [OSI-027] (partner 0.5 µM)
Procedure, shortened: (§1)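 Each reported value is a median over duplicate plates. It expresses relative viability: treated-well nuclei count divided by vehicle-well nuclei count. Lung cancer cell lines in 1536-well plates were dosed by pin tool a day after seeding, alone with one drug or with a fixed anchor-drug dose plus five library-drug doses (not always all listed) in √10 steps, and nuclei were counted after 5 days.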

Bicalutamide + Lapatinib = compound: CC(O)(CS(=O)(=O)c1ccc(F)cc1)C(=O)Nc1ccc(C#N)c(C(F)(F)F)c1 [Bicalutamide] + CS(=O)(=O)CCNCc1ccc(-c2ccc3ncnc(Nc4ccc(OCc5cccc(F)c5)c(Cl)c4)c3c2)o1 [Lapatinib] (partner 2 µM)
Procedure, shortened: as §1

[1] = compound: CC(O)(CS(=O)(=O)c1ccc(F)cc1)C(=O)Nc1ccc(C#N)c(C(F)(F)F)c1 [Bicalutamide] + Nc1nc2[nH]cc(CCc3ccc(C(=O)N[C@@H](CCC(=O)O)C(=O)O)cc3)c2c(=O)[nH]1 [Pemetrexed] (partner 0.2 µM)
Procedure, shortened: as §1

[2] = compound: C(C(=O)C(=O)O)Br [Bromopyruvate] + COc1cc2c(Oc3ccc(NC(=O)C4(C(=O)Nc5ccc(F)cc5)CC4)cc3F)ccnc2cc1OCCCN1CCOCC1 [Foretinib] (partner 0.25 µM)
Procedure, shortened: as §1

Row | Cell Line | relative viability (Bicalutamide + OSI-027; first compound 0.08 µM) | relative viability (Bicalutamide + OSI-027; first compound 0.253 µM) | relative viability (Bicalutamide + OSI-027; first compound 0.8 µM) | relative viability (Bicalutamide + OSI-027; first compound 2.53 µM) | relative viability (Bicalutamide + Lapatinib; first compound 0.08 µM) | relative viability (Bicalutamide + Lapatinib; first compound 0.253 µM) | relative viability (Bicalutamide + Lapatinib; first compound 0.8 µM) | relative viability (Bicalutamide + Lapatinib; first compound 2.53 µM) | relative viability ([1]; first compound 0.08 µM) | relative viability ([1]; first compound 0.253 µM) | relative viability ([1]; first compound 0.8 µM) | relative viability ([1]; first compound 2.53 µM) | relative viability ([2]; first compound 1 µM) | relative viability ([2]; first compound 3.162 µM) | relative viability ([2]; first compound 10 µM) | relative viability ([2]; first compound 31.62 µM) | relative viability ([2]; first compound 100 µM)
1 | NCI-H1563 | 0.764 | 0.698 | 0.804 | 0.65 | 1.19 | 0.853 | 0.984 | 0.776 | 0.871 | 0.69 | 0.919 | 0.697 | 0.869 | 1.11 | 0.946 | 0.879 | 0.901
2 | NCI-H1650 | 0.71 | 0.552 | 0.744 | 0.649 | 0.905 | 0.655 | 1.09 | 0.74 | 0.353 | 0.411 | 0.433 | 0.365 | 1.16 | 1.25 | 1.12 | 1.42 | 0.747
3 | NCI-H1651 | 0.654 | 0.562 | 0.856 | 0.694 | 0.731 | 0.744 | 1.07 | 0.788 | 0.597 | 0.525 | 0.672 | 0.618 | 0.728 | 0.902 | 0.904 | 0.849 | 0.91
4 | NCI-H1666 | 0.911 | 0.866 | 0.916 | 0.831 | 0.733 | 0.652 | 0.815 | 0.662 | 0.886 | 0.865 | 0.894 | 0.879 | 0.994 | 1.05 | 1.03 | 1 | 0.936
5 | NCI-H1734 | 0.66 | 0.473 | 0.614 | 0.488 | 1.18 | 0.904 | 1.25 | 0.971 | 0.428 | 0.405 | 0.455 | 0.393 | 0.888 | 0.923 | 1.03 | 0.807 | 0.824
6 | NCI-H1755 | 0.768 | 0.687 | 0.82 | 0.524 | 1.03 | 1.06 | 1.05 | 0.928 | 0.386 | 0.379 | 0.434 | 0.477 | 0.936 | 0.923 | 0.925 | 0.909 | 0.937
7 | NCI-H1793 | 0.278 | 0.238 | 0.302 | 0.269 | 0.637 | 0.645 | 1.04 | 0.832 | 0.914 |  | 1.07 | 0.907 | 0.718 | 0.821 | 0.833 | 0.736 | 0.684
8 | NCI-H1915 | 0.639 | 0.516 | 0.653 | 0.535 | 0.933 | 0.933 | 1.06 | 0.882 | 0.509 | 0.516 | 0.481 | 0.48 | 1.03 | 1.08 | 1.09 | 1 | 1.12
9 | NCI-H1944 | 0.476 | 0.292 | 0.442 | 0.389 | 0.857 | 0.607 | 0.899 | 0.904 | 0.562 | 0.599 | 0.681 | 0.611 | 0.954 | 0.83 | 1.03 | 0.874 | 0.913
